Source: patent US20040096494A1, “Composition” (priority 2003, published 2004)

Conditions: minipig, in vivo

oral bioavailability, expressed as the systemic exposure to ketoprofen relative to intravenous ketoprofen [%] | oral bioavailability, expressed as the systemic exposure to diclofenac relative to intravenous diclofenac [%] | SMILES
82 | – | CC(C(=O)OCCCCCCO[N+](=O)[O-])c1cccc(C(=O)c2ccccc2)c1 (stereo not drawn) [Compound of formula Ic]
80 | – | CC(C(=O)OCc1ccc(CO[N+](=O)[O-])cc1)c1cccc(C(=O)c2ccccc2)c1 (stereo not drawn) [Compound of formula If]
– | 85 | O=C(Cc1ccccc1Nc1c(Cl)cccc1Cl)OCCCCO[N+](=O)[O-] [Compound of formula Ig]
